Values of other authors, collected in PubChem BioAssay AID1259409 (Chemical Carcinogenesis Research Information System (CCRIS), 2018).

System: rodent chemically induced tumor inhibition, incidence and multiplicity
Assay: CCRIS tumor inhibitor studies

For S=C=NCCCCCCc1ccccc1, the “tumour outcome (control, treated, inhibition, significance)” value (Carcinogen: 4-(METHYLNITROSAMINO)-1-(3-PYRIDYL)-1-BUTANONE, 64091-91-4, Dose [Inhibitor]: 0, 1 UMOL/G DIET FOR DURATION OF STUDY BEGINNING 1 WK PRIOR TO CARCINOGEN TREATMENT (STUDY DURATION: 112 WK), Route [Inhibitor]: ORAL, Species: RAT, Strain/Sex: F344/MALE, Target Tissue: Type of Lesion: PANCREAS: ACINAR ADENOMA, Dose [Carcinogen]: 2 PPM IN DRINKING WATER FOR 111 WK, Promoter: NONE USED) is listed as 1/52 (2%), 6/50 (12%), -500%, p=0.04, the “tumour outcome (control, treated, inhibition, significance)” value (Carcinogen: 4-(METHYLNITROSAMINO)-1-(3-PYRIDYL)-1-BUTANONE, 64091-91-4, Dose [Inhibitor]: 0, 1 UMOL/G DIET FOR DURATION OF STUDY BEGINNING 1 WK PRIOR TO CARCINOGEN TREATMENT (STUDY DURATION: 112 WK), Route [Inhibitor]: ORAL, Species: RAT, Strain/Sex: F344/MALE, Target Tissue: Type of Lesion: PANCREAS: MALIGNANT TUMOR, Dose [Carcinogen]: 2 PPM IN DRINKING WATER FOR 111 WK, Promoter: NONE USED) is listed as 4/52 (8%), 1/50 (2%), 75%, not significant and the “tumour outcome (control, treated, inhibition, significance)” value (Carcinogen: 4-(METHYLNITROSAMINO)-1-(3-PYRIDYL)-1-BUTANONE, 64091-91-4, Dose [Inhibitor]: 0, 5 UMOL IN 0.1 ML CORN OIL ONCE 2 HR PRIOR TO CARCINOGEN DOSE (STUDY DURATION: 16 WK), Route [Inhibitor]: GAVAGE, Species: MOUSE, Strain/Sex: STRAIN-A/FEMALE, Target Tissue: Type of Lesion: LUNG: ADENOMA, Dose [Carcinogen]: 10 UMOL IN 0.1 ML SALINE ONCE, Promoter: NONE USED) is listed as 100%, 25%, 75%, p<0.01. For the same compound, the “tumour outcome (control, treated, inhibition, significance)” value (Carcinogen: 4-(METHYLNITROSAMINO)-1-(3-PYRIDYL)-1-BUTANONE, 64091-91-4, Dose [Inhibitor]: 0, 438 PPM IN DIET FOR 22 WK BEGINNING 1 WK PRIOR TO CARCINOGEN DOSE (STUDY DURATION: 98 WK), Route [Inhibitor]: ORAL, Species: RAT, Strain/Sex: F344/MALE, Target Tissue: Type of Lesion: NASAL CAVITY: TUMOR, Dose [Carcinogen]: 1.5 MG/KG BW 3/WK FOR 20 WK, Promoter: NONE USED) was 28/36 (78%), 27/36 (75%), 4%, not significant, the “tumour outcome (control, treated, inhibition, significance)” value (Carcinogen: 4-(METHYLNITROSAMINO)-1-(3-PYRIDYL)-1-BUTANONE, 64091-91-4, Dose [Inhibitor]: 0, 438 PPM IN DIET FOR 22 WK BEGINNING 1 WK PRIOR TO CARCINOGEN TREATMENT (STUDY DURATION: 98 WK), Route [Inhibitor]: ORAL, Species: RAT, Strain/Sex: F344/MALE, Target Tissue: Type of Lesion: LUNG: TUMOR, Dose [Carcinogen]: 1.5 MG/KG BW 3/WK FOR 20 WK, Promoter: NONE USED) was 22/33 (67%), 7/36 (19%), 72%, p<0.01 and the “tumour outcome (control, treated, inhibition, significance)” value (Carcinogen: 4-(METHYLNITROSAMINO)-1-(3-PYRIDYL)-1-BUTANONE, 64091-91-4, Dose [Inhibitor]: 0, 876 PPM IN DIET FOR 22 WK BEGINNING 1 WK PRIOR TO CARCINOGEN TREATMENT (STUDY DURATION: 98 WK), Route [Inhibitor]: ORAL, Species: RAT, Strain/Sex: F344/MALE, Target Tissue: Type of Lesion: LUNG: TUMOR, Dose [Carcinogen]: 1.5 MG/KG BW 3/WK FOR 20 WK, Promoter: NONE USED) was 22/33 (67%), 8/34 (24%), 64%, p<0.01. For the same compound, the “tumour outcome (control, treated, inhibition, significance)” value (Carcinogen: 4-(METHYLNITROSAMINO)-1-(3-PYRIDYL)-1-BUTANONE, 64091-91-4, Dose [Inhibitor]: 0, 876 PPM IN DIET FOR 22 WK BEGINNING 1 WK PRIOR TO CARCINOGEN TREATMENT (STUDY DURATION: 98 WK), Route [Inhibitor]: ORAL, Species: RAT, Strain/Sex: F344/MALE, Target Tissue: Type of Lesion: NASAL CAVITY: TUMOR, Dose [Carcinogen]: 1.5 MG/KG BW 3/WK FOR 20 WK, Promoter: NONE USED) was 28/36 (78%), 27/36 (75%), 4%, not significant, the “tumour outcome (control, treated, inhibition, significance)” value (Carcinogen: 4-(METHYLNITROSAMINO-1-(3-PYRIDYL)-1-BUTANONE, 64091-91-4, Dose [Inhibitor]: O, 0.2 UMOL 1/D FOR 4 D ADMINISTERED PRIOR TO CARCINOGEN TREATMENT (STUDY DURATION: 116 D), Route [Inhibitor]: GAVAGE, Species: MOUSE, Strain/Sex: STRAIN A, Target Tissue: Type of Lesion: LUNG: ADENOMA, Dose [Carcinogen]: 10 UMOL ONCE 2 HR AFTER FINAL DOSE OF INHIBITOR, Promoter: NONE USED) was 100%, 70%, 30%, p<0.05 and the outcome (Carcinogen: BENZO[A]PYRENE, 50-32-8, Dose [Inhibitor]: 0, 5 UMOL IN ACETONE 4 HR PRIOR TO CARCINOGEN DOSE (STUDY DURATION: 20 WK), Route [Inhibitor]: DERMAL, Species: MOUSE, Strain/Sex: STRAIN-A/FEMALE, Target Tissue: Type of Lesion: SKIN: TUMOR, Dose [Carcinogen]: 0.1 UMOL IN ACETONE ONCE, Promoter: 12-O-TETRADECANOYLPHORBOL-13-ACETATE, 16561-29-8) was 70%, 90%, 29%, not significant at 15 wk; 95%, 95%, 0%, not significant at 20 wk. The “tumour outcome (control, treated, inhibition, significance)” value (Carcinogen: N-BUTYL-N(4-HYDROXYBUTYL)NITROSAMINE (3817-11-6), Dose [Inhibitor]: 0.5 UMOL/G IN DIET BEGINNING 1 WK BEFORE CARCINOGEN EXPOSURE (STUDY DURATION: 16 WK), Route [Inhibitor]: ORAL, Species: RAT, Strain/Sex: WISTAR/MALE, Target Tissue: Type of Lesion: URINARY BLADDER: PAPILLOMA, Dose [Carcinogen]: 0.025% IN DRINKING WATER FOR 15 WK, Promoter: NONE USED) was 38/40 (95%), 24/30 (80%), 16%, not significant, the “tumour outcome (control, treated, inhibition, significance)” value (Carcinogen: N-NITROSOMETHYLBENZYLAMINE [937-40-6], Dose [Inhibitor]: 0, 1 MMOL/KG DIET IMMEDIATELY POST LAST CARCINOGEN DOSE (STUDY DURATION: 25 WK), Route [Inhibitor]: ORAL, Species: RAT, Strain/Sex: F344/MALE, Target Tissue: Type of Lesion: ESOPHAGUS: TUMOR, Dose [Carcinogen]: 0.5 MG/KG BW IN 20% DMSO 3 TIMES/WK FOR 5 WK (STUDY DURATION: 25 WK), Promoter: NONE) was 100%, 100%, 0%, not significant and the “tumour outcome (control, treated, inhibition, significance)” value (Carcinogen: N-NITROSOMETHYLBENZYLAMINE [937-40-6], Dose [Inhibitor]: 0, 2.5 MMOL/KG DIET IMMEDIATELY POST LAST CARCINOGEN DOSE (STUDY DURATION: 25 WK), Route [Inhibitor]: ORAL, Species: RAT, Strain/Sex: F344/MALE, Target Tissue: Type of Lesion: ESOPHAGUS: TUMOR, Dose [Carcinogen]: 0.5 MG/KG BW IN 20% DMSO 3 TIMES/WK FOR 5 WK (STUDY DURATION: 25 WK), Promoter: NONE) was 100%, 100%, 0%, not significant.
